pIC50: −log10 of the molar value.

Usually pIC50 stands for the negative decadic logarithm of the IC50, by convention in mol/L.

Assay [1] concerns the target T1, Human CD73 (amino acid residues 27-549) (Homo sapiens, UniProt P21589).
T1 construct: Human CD73 (amino acid residues 27-549); His tag (N); made in house; host or cells: E. coli
T1 sequence (P21589 27-549): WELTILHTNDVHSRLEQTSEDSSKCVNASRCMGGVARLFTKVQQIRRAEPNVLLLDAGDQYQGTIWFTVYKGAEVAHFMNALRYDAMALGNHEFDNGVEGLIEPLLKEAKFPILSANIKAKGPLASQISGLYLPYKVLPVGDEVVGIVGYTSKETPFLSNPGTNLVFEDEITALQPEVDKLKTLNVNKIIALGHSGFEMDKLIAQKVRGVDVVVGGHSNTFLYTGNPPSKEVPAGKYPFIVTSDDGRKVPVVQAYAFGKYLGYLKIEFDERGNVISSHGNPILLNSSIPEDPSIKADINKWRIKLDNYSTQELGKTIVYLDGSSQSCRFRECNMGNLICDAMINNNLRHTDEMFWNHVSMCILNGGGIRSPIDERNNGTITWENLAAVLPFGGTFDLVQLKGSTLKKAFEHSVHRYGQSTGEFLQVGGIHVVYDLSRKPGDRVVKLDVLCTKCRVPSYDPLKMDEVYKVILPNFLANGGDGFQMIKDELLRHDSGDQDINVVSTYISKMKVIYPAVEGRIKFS
Nature of the assay: CD73 enzymatic assay (luciferase-based indirect assay, CellTiter-Glo). It is filed as biochemical. The following applies: 0.4 nM CD73, 150 μM AMP, 1 hour at room temperature. The method, then:
CD73 enzymatic activity was measured in a luciferase-based indirect assay using CellTiter-Glo® system from Promega. The luciferase reaction in the presence of ATP is inhibited by AMP, a primary substrate of CD73. Addition of CD73 enzyme to the reaction converts AMP to adenosine, and release the inhibition, producing a luminescent signal. Inhibition of CD73 leads to the decrease of this luminescent signal.
Human CD73 (amino acid residues 27-549) with N-Terminal His tag was purified in E. coli. All the assay components were prepared in 50 mM HEPEs buffer (pH 7.4) with 0.01% Tween-20. The CD73 enzymatic assay was performed using 0.4 nM CD73 and 150 μM AMP. 9.5 μL of CD73 protein and 9.5 μL of AMP were added to the wells of a 384 well plate containing lpL of various concentrations of test compound or DMSO vehicle and incubated for 1 hour at room temperature. 16 wells containing CD73, AMP and 5% DMSO served as high control. 16 wells containing AMP and 5% DMSO served as low control. Enzymatic reaction was stopped and AMP level was measured indirectly by adding 5 μL of CellTiter-Glo® 2.0 reagent and 5 μL of ATP with a final concentration of 1 μM. Following incubation of the plate at room temperature for 30 minutes, luminescent signal was read on a Tecan plate reader. The percentage inhibition at individual concentrations relative to high and low controls was calculated. The data were analyzed by using nonlinear regression to generate IC50 values.
In general terms: Cellular ATP, detected with luciferase, serves as a proxy for viable cell number.

The target of assay [2] is T2, human CD73 (Homo sapiens, UniProt P21589).
T2 construct: expressed in transfected cells
T2 sequence (P21589 27-549): T1 sequence (P21589 27-549)
Nature of the assay: Inhibitor activity against CD73 in cell based assay (CD73 expressing CHO-K1 cells). To be noted: CHO-K1 cells expressing human CD73, 150 μM AMP, 4 hours of incubation; read-out: CHO-K1 CELL_VARIANT: CD73 IC50. The method, then:
Determine Inhibitor Activity Against CD73 in Cell Based Assay
CD73 expressing CHO-K1 cell clones were generated upon stable transfection of a plasmid expressing human CD73 under the control of CMV promoter. Cells were selected in Ham's F-12K (Kaighn's) media supplemented with 10% fetal bovine serum and 1 mg/ml G418 at 37° C. in a humidified incubator supplied with 5% CO2. The assays were performed as follows. Cells were seeded in a 96 well plate in 50 μL of culture media at a density of 1×10^4 per well. Compound at a maximal concentration of 5 mM was serially diluted 1:3 in DMSO for a total of 8 point titration. A 2 μL aliquot of each dilution point was added to […] culture media and 25 µL was added to each well, providing 10 μM compound at the maximum concentration point. AMP was diluted in culture media and 25 μL was added to each well with a final concentration of 150 μM. 4 wells containing 0.2% DMSO treated cells and AMP served as high controls and 4 wells containing media only with 0.2% DMSO and AMP served as low controls. After 4 hours of incubation, 20 μL of the supernatant was transferred to a 384 well plate. AMP level in supernatant was measured indirectly by adding 5 μL of CellTiter-Glo® 2.0 reagent and 5 μL of ATP with a final concentration of 1 μM. Following incubation of plate at room temperature for 30 minutes, luminescent signal was read on a Tecan plate reader. The percentage inhibition at individual concentrations relative to high and low controls was calculated. The data were analyzed by using nonlinear regression to generate ICso values.

In the case of `CC1CNCCC1c1ccnc(O[C@@H]2CCN(c3cn[nH]c(=O)c3Cl)C2)c1` (stereo partly drawn) [P-0009, 4-chloro-5-((3R)-3-((4-(3-methylpiperidin-4-yl)pyridin-2-yl)oxy)pyrrolidin-1-yl)pyridazin-3(2H)-one], the pIC50 in assay [1] and in assay [2] was 5.00 to 9.00 in each case.

`N#Cc1cc(O[C@@H]2CCN(c3cn[nH]c(=O)c3Cl)C2)nc(N2CCCC2)c1` [P-0253, (R)-2-((1-(5-chloro-6-oxo-1,6-dihydropyridazin-4-yl)pyrrolidin-3-yl)oxy)-6-(pyrrolidin-1-yl)isonicotinonitrile]: the negative-log IC50 (pIC50) in assay [1] is 5.00 to 9.00; in assay [2], 4.00 to 5.00.

On to `COCc1noc(C)c1-c1ccnc(O[C@@H]2CCN(c3cn[nH]c(=O)c3Cl)C2)c1` [P-0150, (R)-4-chloro-5-(3-((4-(3-(methoxymethyl)-5-methylisoxazol-4-yl)pyridin-2-yl)oxy)pyrrolidin-1-yl)pyridazin-3(2H)-one], for which the pIC50 in assay [1] and in assay [2] was 5.00 to 9.00 throughout.

As to `Cc1noc(C)c1-c1cc(O[C@@H]2CCN(c3cnn(CCO)c(=O)c3Cl)C2)ncc1F` [P-0146, (R)-4-chloro-5-(3-((4-(3,5-dimethylisoxazol-4-yl)-5-fluoropyridin-2-yl)oxy)pyrrolidin-1-yl)-2-(2-hydroxyethyl)pyridazin-3(2H)-one], the pIC50 in assay [1] and in assay [2] was 5.00 to 9.00 throughout.

Take `O=c1[nH]ncc(N2CC[C@@H](Oc3cc(C4CCOCC4)ccn3)C2)c1Cl` [P-0072, (R)-4-chloro-5-(3-((4-(tetrahydro-2H-pyran-4-yl)pyridin-2-yl)oxy)pyrrolidin-1-yl)pyridazin-3(2H)-one]: the pIC50 in assay [1] and in assay [2] was 5.00 to 9.00 each time.

Consider `CCC1(Cn2nc(C)c(-c3ccnc(O[C@@H]4CCN(c5cn[nH]c(=O)c5Cl)C4)c3)c2C)COC1` [P-0054, (R)-4-chloro-5-(3-((4-(1-((3-ethyloxetan-3-yl)methyl)-3,5-dimethyl-1H-pyrazol-4-yl)pyridin-2-yl)oxy)pyrrolidin-1-yl)pyridazin-3(2H)-one], for which the pIC50 in assay [1] and in assay [2] was 5.00 to 9.00 each time.

In the case of `O=c1[nH]ncc(N2CC[C@@H](Oc3cc(-c4ccc(OC(F)(F)F)cc4)ccn3)C2)c1Cl` [P-0237, (R)-4-chloro-5-(3-((4-(4-(trifluoromethoxy)phenyl)pyridin-2-yl)oxy)pyrrolidin-1-yl)pyridazin-3(2H)-one], the pIC50 in assay [1] and in assay [2] was 5.00 to 9.00 throughout.

Regarding `CC(=O)N1CCN(c2ccnc(O[C@@H]3CCN(c4cn[nH]c(=O)c4Cl)C3)c2)[C@@H](C)C1` [P-0103, 5-((R)-3-((4-((S)-4-acetyl-2-methylpiperazin-1-yl)pyridin-2-yl)oxy)pyrrolidin-1-yl)-4-chloropyridazin-3(2H)-one], the results for the pIC50 in assay [1] and in assay [2] were 5.00 to 9.00 and 4.00 to 5.00, respectively.

`O=c1[nH]ncc(N2CC[C@@H](Oc3cc(-c4ccc(S(=O)(=O)N5CCCCC5)cc4)c(Cl)cn3)C2)c1Cl` [P-0249, (R)-4-chloro-5-(3-((5-chloro-4-(4-(piperidin-1-ylsulfonyl)phenyl)pyridin-2-yl)oxy)pyrrolidin-1-yl)pyridazin-3(2H)-one]: the pIC50 in assay [1] and in assay [2] was 5.00 to 9.00 throughout.

As for `O=c1[nH]ncc(N2CC[C@@H](Oc3cc(-c4ccc(S(=O)(=O)NC5CC5)cc4)c(F)cn3)C2)c1Cl` [P-0238, (R)-4-(2-((1-(5-chloro-6-oxo-1,6-dihydropyridazin-4-yl)pyrrolidin-3-yl)oxy)-5-fluoropyridin-4-yl)-N-cyclopropylbenzenesulfonamide], the pIC50 in assay [1] and in assay [2] was 5.00 to 9.00 throughout.

Regarding `Cc1nn(CC(C)(C)O)c(C)c1-c1ccnc(O[C@H]2CN(c3cn[nH]c(=O)c3Cl)C[C@@H]2F)c1` [P-0021, 4-chloro-5-((3S,4S)-3-fluoro-4-((4-(1-(2-hydroxy-2-methylpropyl)-3,5-dimethyl-1H-pyrazol-4-yl)pyridin-2-yl)oxy)pyrrolidin-1-yl)pyridazin-3(2H)-one], the pIC50 in assay [1] and in assay [2] was 5.00 to 9.00 throughout.

`O=c1[nH]ncc(N2CC[C@@H](Oc3cc(-c4ccnc(O[C@@H]5CCN(c6cn[nH]c(=O)c6Cl)C5)c4)ccn3)C2)c1Cl` [P-0215, 5,5′-((3R,3′R)-([4,4′-bipyridine]-2,2′-diylbis(oxy))bis(pyrrolidine-3,1-diyl))bis(4-chloropyridazin-3(2H)-one)]: the pIC50 in assay [1] was 5.00 to 9.00; in assay [2] it was 4.00 to 5.00.

Take `Cc1ccnc(C(C)C)c1Nc1cccnc1O[C@@H]1CCN(c2cn[nH]c(=O)c2Cl)C1` [P-0105, (R)-4-chloro-5-(3-((3-((2-isopropyl-4-methylpyridin-3-yl)amino)pyridin-2-yl)oxy)pyrrolidin-1-yl)pyridazin-3(2H)-one]: the pIC50 in assay [1] and in assay [2] was 5.00 to 9.00 each time.

Turning to `CC1(C)CC=C(c2ccnc(O[C@@H]3CCN(c4cn[nH]c(=O)c4Cl)C3)c2)CC1` [P-0099, (R)-4-chloro-5-(3-((4-(4,4-dimethylcyclohex-1-en-1-yl)pyridin-2-yl)oxy)pyrrolidin-1-yl)pyridazin-3(2H)-one], the negative logarithm of the IC50 (pIC50) in assay [1] and in assay [2] was 5.00 to 9.00 each time.

Turning to `Cc1nn(CCN2CCOCC2)c(C)c1-c1cc(F)nc(O[C@@H]2CCN(c3cn[nH]c(=O)c3Cl)C2)c1` [P-0160, (R)-4-chloro-5-(3-((4-(3,5-dimethyl-1-(2-morpholinoethyl)-1H-pyrazol-4-yl)-6-fluoropyridin-2-yl)oxy)pyrrolidin-1-yl)pyridazin-3(2H)-one], the pIC50 in assay [1] and in assay [2] was 5.00 to 9.00 each time.

Turning to `O=c1[nH]ncc(N2CC[C@@H](Oc3cc(C4CC5CCC(C4)N5)ccn3)C2)c1Cl` (stereo partly drawn) [P-0012, 5-((3R)-3-((4-(8-azabicyclo[3.2.1]octan-3-yl)pyridin-2-yl)oxy)pyrrolidin-1-yl)-4-chloropyridazin-3(2H)-one], the pIC50 in assay [1] and in assay [2] was 5.00 to 9.00 in each case.

As for `Cc1nn(CC2COC2)c(C)c1-c1ccnc(O[C@@H]2CCN(c3cn[nH]c(=O)c3Cl)C2)c1` [P-0087, (R)-4-chloro-5-(3-((4-(3,5-dimethyl-1-(oxetan-3-ylmethyl)-1H-pyrazol-4-yl)pyridin-2-yl)oxy)pyrrolidin-1-yl)pyridazin-3(2H)-one], the negative logarithm of the IC50 (pIC50) in assay [1] and in assay [2] was 5.00 to 9.00 throughout.

On to `Cc1nn(C)c(C)c1-c1cc(F)nc(O[C@@H]2CCN(c3cnn(CCO)c(=O)c3Cl)C2)c1` [P-0199, (R)-4-chloro-5 (3-((6-fluoro-4-(1,3,5-trimethyl-1H-pyrazol-4-yl)pyridin-2-yl)oxy)pyrrolidin-1-yl)-2-(2-hydroxyethyl)pyridazin-3(2H)-one], for which the pIC50 in assay [1] and in assay [2] was 5.00 to 9.00 in each case.

On to `Cc1nnn(C)c1-c1cc(F)nc(O[C@@H]2CCN(c3cn[nH]c(=O)c3Cl)C2)c1` [P-0172, (R)-4-chloro-5-(3-((4-(1,4-dimethyl-1H-1,2,3-triazol-5-yl)-6-fluoropyridin-2-yl)oxy)pyrrolidin-1-yl)pyridazin-3(2H)-one], for which the pIC50 in assay [1] and in assay [2] was 5.00 to 9.00 in each case.

The values are drawn from patent US12202818B2, “Compounds and methods for CD73 modulation and indications therefor” (Opna Bio SA, priority 2020, dated 2025).
